How the values were obtained:
Experiment in all cases: radiometric filter-binding kinase assay
[1] = target: ABL1 (human) (UniProt P00519); conditions: compound 100.0 µM; ATP 5 µM
[2] = test system: AKT2 (human), P31751 [S474D]; conditions: compound 100.0 µM; ATP 50 µM
[3] = target: AURKA (human) (UniProt O14965); conditions: compound 100.0 µM; ATP 5 µM
[4] = target: AURKB (human) (UniProt Q96GD4); conditions: compound 100.0 µM; ATP 20 µM
[5] = target: BRSK1 (human) (UniProt Q8TDC3); conditions: compound 100.0 µM; ATP 20 µM
[6] = target: CHEK1 (human) (UniProt O14757); conditions: compound 100.0 µM; ATP 20 µM
[7] = target: CHEK2 (human) (UniProt O96017); conditions: compound 100.0 µM; ATP 20 µM
[8] = target: CSNK2A1 (human) (UniProt P68400); conditions: compound 100.0 µM; ATP 5 µM
[9] = target: DYRK2 (human) (UniProt Q92630); conditions: compound 100.0 µM; ATP 50 µM
[10] = target: FGFR1 (human) (UniProt P11362); conditions: compound 100.0 µM; ATP 20 µM
[11] = target: FLT1 (human) (UniProt P17948); conditions: compound 100.0 µM; ATP 20 µM
[12] = target: GCK (human) (UniProt Q12851); conditions: compound 100.0 µM; ATP 20 µM
[13] = target: IRAK4 (human) (UniProt Q9NWZ3); conditions: compound 100.0 µM; ATP 20 µM
[14] = target: JAK2 JH1 JH2 (human) (UniProt O60674); conditions: compound 100.0 µM; ATP 5 µM
[15] = target: MAP2K1 (human) (UniProt Q02750); conditions: compound 100.0 µM; ATP 5 µM
[16] = target: MAP2K2 (human) (UniProt P36507); conditions: compound 100.0 µM; ATP 5 µM
[17] = target: MAP3K9 (human) (UniProt P80192); conditions: compound 100.0 µM; ATP 20 µM
[18] = target: MAPK13 (human) (UniProt O15264); conditions: compound 100.0 µM; ATP 5 µM
[19] = target: MAPK14 (human) (UniProt Q16539); conditions: compound 100.0 µM; ATP 50 µM
[20] = target: MAPK15 (human) (UniProt Q8TD08); conditions: compound 100.0 µM; ATP 5 µM
[21] = target: MAPK3 (human) (UniProt P27361); conditions: compound 100.0 µM; ATP 5 µM
[22] = target: MAPK9 (human) (UniProt P45984); conditions: compound 100.0 µM; ATP 20 µM
[23] = target: MAPKAPK3 (human) (UniProt Q16644); conditions: compound 100.0 µM; ATP 20 µM
[24] = target: MARK1 (human) (UniProt Q9P0L2); conditions: compound 100.0 µM; ATP 20 µM
[25] = target: MARK4 (human) (UniProt Q96L34); conditions: compound 100.0 µM; ATP 50 µM
[26] = target: PAK6 (human) (UniProt Q9NQU5); conditions: compound 100.0 µM; ATP 20 µM
[27] = target: PAK7 (human) (UniProt Q9P286); conditions: compound 100.0 µM; ATP 20 µM
[28] = target: PDPK1 (human) (UniProt O15530); conditions: compound 100.0 µM
[29] = target: PHKG1 (human) (UniProt Q16816); conditions: compound 100.0 µM; ATP 50 µM
[30] = target: PIM1 (human) (UniProt P11309); conditions: compound 100.0 µM; ATP 20 µM
[31] = target: PIM3 (human) (UniProt Q86V86); conditions: compound 100.0 µM; ATP 20 µM
[32] = target: PLK1 (human) (UniProt P53350); conditions: compound 100.0 µM; ATP 5 µM
[33] = target: PTK6 (human) (UniProt Q13882); conditions: compound 100.0 µM; ATP 20 µM
[34] = target: RIPK2 (human) (UniProt O43353); conditions: compound 100.0 µM; ATP 20 µM
[35] = test system: RPS6KB1 (human), P23443 [T412E]; conditions: compound 100.0 µM; ATP 20 µM
[36] = test system: SGK1 (human), O00141 [S422D]; conditions: compound 100.0 µM; ATP 20 µM
[37] = target: SRPK1 (human) (UniProt Q96SB4); conditions: compound 100.0 µM; ATP 50 µM
[38] = target: STK16 (human) (UniProt O75716); conditions: compound 100.0 µM; ATP 50 µM
[39] = target: TBK1 (human) (UniProt Q9UHD2); conditions: compound 100.0 µM; ATP 50 µM
[40] = target: TTK (human) (UniProt P33981); conditions: compound 100.0 µM; ATP 20 µM

Sequence of SRPK1 (human) (Q96SB4 whole entry, looked up): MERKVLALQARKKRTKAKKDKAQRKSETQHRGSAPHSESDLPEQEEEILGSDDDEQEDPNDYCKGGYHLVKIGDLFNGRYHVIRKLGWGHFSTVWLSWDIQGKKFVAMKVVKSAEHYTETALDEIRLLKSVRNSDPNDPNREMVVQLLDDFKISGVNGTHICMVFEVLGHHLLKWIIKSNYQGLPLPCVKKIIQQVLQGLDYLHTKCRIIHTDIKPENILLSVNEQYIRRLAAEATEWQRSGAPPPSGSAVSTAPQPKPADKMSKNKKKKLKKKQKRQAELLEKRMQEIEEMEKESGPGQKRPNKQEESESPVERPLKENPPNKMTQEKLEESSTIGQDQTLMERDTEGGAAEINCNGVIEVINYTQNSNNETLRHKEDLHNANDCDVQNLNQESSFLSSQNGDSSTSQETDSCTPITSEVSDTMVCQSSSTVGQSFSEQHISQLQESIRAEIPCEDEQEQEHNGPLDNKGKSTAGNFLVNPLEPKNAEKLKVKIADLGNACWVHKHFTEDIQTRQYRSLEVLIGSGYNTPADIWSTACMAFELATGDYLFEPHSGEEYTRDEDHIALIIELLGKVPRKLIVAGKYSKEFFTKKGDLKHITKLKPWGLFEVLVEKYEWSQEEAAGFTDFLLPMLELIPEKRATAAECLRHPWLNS
Sequence of PIM1 (human) (P11309 whole entry, looked up): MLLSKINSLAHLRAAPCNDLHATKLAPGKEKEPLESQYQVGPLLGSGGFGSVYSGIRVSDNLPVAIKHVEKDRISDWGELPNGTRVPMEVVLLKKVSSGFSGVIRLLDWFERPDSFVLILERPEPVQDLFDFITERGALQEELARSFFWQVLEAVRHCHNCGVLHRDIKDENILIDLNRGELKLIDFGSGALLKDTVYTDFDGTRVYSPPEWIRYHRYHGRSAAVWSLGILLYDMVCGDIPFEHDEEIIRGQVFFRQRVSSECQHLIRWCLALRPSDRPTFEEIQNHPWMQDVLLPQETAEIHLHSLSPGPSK
Sequence of IRAK4 (human) (Q9NWZ3 whole entry, looked up): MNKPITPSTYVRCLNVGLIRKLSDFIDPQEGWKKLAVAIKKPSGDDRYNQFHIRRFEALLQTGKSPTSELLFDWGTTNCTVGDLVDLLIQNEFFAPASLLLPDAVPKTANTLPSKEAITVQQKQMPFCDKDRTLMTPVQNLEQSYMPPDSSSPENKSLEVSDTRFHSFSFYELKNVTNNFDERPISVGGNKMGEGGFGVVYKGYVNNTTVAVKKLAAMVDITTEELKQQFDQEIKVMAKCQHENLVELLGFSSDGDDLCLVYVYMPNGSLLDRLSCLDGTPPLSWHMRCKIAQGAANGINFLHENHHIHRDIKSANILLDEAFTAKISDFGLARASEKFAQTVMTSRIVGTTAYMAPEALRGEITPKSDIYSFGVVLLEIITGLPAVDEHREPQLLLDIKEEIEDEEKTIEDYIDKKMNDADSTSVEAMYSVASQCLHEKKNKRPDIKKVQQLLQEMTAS
Sequence of CHEK1 (human) (O14757 whole entry, looked up): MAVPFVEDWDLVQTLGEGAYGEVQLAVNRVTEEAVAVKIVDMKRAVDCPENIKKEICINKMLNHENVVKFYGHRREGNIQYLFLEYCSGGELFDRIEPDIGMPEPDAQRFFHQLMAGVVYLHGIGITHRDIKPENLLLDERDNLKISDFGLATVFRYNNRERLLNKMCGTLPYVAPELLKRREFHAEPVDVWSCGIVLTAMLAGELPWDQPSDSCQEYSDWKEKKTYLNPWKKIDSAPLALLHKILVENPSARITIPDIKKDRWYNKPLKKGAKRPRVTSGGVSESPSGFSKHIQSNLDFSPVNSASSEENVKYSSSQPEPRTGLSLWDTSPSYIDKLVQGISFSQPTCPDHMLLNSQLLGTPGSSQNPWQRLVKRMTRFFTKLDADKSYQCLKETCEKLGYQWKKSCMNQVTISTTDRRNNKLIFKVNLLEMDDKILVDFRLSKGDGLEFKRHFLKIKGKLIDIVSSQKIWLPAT
Sequence of MAPK14 (human) (Q16539 whole entry, looked up): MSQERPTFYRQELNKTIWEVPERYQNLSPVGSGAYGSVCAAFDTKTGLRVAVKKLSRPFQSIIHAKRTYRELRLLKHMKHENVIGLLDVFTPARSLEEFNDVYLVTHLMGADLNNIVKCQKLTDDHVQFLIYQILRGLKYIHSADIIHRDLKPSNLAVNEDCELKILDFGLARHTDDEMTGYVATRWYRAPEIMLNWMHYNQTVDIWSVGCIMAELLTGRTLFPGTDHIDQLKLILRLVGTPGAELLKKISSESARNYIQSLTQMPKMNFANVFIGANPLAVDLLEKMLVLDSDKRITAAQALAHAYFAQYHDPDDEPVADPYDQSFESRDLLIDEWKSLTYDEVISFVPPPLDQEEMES
Sequence of GCK (human) (Q12851 whole entry, looked up): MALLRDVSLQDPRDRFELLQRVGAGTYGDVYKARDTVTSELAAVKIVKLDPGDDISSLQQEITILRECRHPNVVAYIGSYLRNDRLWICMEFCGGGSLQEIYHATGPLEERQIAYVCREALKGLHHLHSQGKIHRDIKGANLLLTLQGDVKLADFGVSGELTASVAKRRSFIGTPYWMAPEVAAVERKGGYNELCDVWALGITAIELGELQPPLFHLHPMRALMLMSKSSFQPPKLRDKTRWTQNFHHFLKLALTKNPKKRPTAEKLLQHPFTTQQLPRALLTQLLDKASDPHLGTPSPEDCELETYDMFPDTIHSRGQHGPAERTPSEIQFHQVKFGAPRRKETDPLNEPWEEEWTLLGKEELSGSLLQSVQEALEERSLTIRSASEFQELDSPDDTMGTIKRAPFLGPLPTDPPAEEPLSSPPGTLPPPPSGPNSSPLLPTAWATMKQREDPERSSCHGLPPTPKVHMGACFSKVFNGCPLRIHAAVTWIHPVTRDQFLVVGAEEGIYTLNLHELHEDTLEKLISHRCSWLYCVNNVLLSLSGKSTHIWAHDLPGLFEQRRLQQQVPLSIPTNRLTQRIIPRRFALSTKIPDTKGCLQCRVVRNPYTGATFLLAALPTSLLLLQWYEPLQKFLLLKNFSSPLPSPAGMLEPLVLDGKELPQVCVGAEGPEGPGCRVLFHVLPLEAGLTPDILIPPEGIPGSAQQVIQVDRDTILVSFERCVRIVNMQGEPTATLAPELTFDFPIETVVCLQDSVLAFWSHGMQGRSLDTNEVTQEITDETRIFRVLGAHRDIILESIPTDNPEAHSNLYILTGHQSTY
Sequence of MAPK13 (human) (O15264 whole entry, looked up): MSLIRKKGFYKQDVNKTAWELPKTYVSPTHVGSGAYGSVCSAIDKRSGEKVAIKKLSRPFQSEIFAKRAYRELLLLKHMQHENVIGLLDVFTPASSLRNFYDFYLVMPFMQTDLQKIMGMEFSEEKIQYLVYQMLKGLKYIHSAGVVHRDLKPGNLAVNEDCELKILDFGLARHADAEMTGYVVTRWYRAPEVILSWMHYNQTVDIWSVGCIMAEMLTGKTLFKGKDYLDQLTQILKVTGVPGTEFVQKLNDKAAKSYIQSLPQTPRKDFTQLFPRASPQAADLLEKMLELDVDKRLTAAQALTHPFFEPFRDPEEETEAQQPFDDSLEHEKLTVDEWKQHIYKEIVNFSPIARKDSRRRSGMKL
Sequence of PDPK1 (human) (O15530 whole entry, looked up): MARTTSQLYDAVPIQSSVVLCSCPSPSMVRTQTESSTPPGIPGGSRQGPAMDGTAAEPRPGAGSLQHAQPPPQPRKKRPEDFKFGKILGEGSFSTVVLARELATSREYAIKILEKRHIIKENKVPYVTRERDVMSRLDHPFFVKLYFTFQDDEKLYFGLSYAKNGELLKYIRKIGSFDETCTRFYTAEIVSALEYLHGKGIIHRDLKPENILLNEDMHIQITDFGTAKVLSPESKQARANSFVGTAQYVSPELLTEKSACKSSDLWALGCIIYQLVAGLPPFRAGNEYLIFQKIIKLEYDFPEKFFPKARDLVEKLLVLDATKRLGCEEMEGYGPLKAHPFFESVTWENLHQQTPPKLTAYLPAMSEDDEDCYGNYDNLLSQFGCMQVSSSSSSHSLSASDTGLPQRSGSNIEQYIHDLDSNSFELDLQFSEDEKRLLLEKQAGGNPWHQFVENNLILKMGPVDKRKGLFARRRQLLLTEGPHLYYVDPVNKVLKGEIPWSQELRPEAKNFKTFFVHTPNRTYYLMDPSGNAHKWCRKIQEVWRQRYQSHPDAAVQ
Sequence of SGK1 (human), O00141 [S422D] (O00141 whole entry S422D, looked up): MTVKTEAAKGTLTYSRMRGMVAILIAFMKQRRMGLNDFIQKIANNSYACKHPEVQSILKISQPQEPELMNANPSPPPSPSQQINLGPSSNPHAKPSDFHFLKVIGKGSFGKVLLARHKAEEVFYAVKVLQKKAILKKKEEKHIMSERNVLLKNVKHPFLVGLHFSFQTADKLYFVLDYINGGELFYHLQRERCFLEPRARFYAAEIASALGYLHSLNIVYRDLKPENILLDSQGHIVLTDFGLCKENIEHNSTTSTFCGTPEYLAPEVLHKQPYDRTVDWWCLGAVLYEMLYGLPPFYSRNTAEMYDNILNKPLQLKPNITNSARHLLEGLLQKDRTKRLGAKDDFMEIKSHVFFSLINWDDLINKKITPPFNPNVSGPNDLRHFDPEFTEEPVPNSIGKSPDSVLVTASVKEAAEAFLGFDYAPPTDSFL
Sequence of MAPK3 (human) (P27361 whole entry, looked up): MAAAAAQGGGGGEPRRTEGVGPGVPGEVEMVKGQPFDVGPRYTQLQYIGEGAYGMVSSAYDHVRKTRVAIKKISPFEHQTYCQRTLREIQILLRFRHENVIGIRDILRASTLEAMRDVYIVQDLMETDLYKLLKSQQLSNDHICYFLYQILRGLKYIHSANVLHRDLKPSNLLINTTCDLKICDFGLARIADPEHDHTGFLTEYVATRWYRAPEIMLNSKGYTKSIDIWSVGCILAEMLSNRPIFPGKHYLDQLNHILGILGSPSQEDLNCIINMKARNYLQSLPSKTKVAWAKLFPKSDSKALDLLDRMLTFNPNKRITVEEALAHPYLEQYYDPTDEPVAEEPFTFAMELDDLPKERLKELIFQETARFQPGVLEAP

CC(C)(C)Nc1c(COCc2ccccc2)nc2[nH]cnn12
inhibition [1]: 11%
inhibition [2]: 39%
inhibition [3]: 5%
inhibition [4]: 12%
inhibition [5]: 0%
inhibition [6]: 0%
inhibition [7]: 19%
inhibition [8]: 5%
inhibition [9]: 6%
inhibition [10]: 40%
inhibition [11]: 0%
inhibition [12]: 0%
inhibition [13]: 0%
inhibition [14]: 11%
inhibition [15]: 0%
inhibition [16]: 11%
inhibition [17]: 14%
inhibition [18]: 0%
inhibition [19]: 5%
inhibition [20]: 1%
inhibition [21]: 1%
inhibition [22]: 10%
inhibition [23]: 38%
inhibition [24]: 0%
inhibition [25]: 22%
inhibition [26]: 20%
inhibition [27]: 0%
inhibition ([28]; ATP 20 µM): 13%
inhibition ([28]; ATP 50 µM): 8%
inhibition [29]: 10%
inhibition [30]: 30%
inhibition [31]: 18%
inhibition [32]: 0%
inhibition [33]: 21%
inhibition [34]: 13%
inhibition [35]: 0%
inhibition [36]: 0%
inhibition [37]: 3%
inhibition [38]: 0%
inhibition [39]: 9%
inhibition [40]: 7%

O=C(Nc1cnc2[nH]ccn2c1=O)c1ccccc1
inhibition [1]: 4%
inhibition [2]: 14%
inhibition [3]: 6%
inhibition [4]: 0%
inhibition [5]: 14%
inhibition [6]: 2%
inhibition [7]: 32%
inhibition [8]: 11%
inhibition [9]: 19%
inhibition [10]: 14%
inhibition [11]: 31%
inhibition [12]: 6%
inhibition [13]: 19%
inhibition [14]: 9%
inhibition [15]: 24%
inhibition [16]: 0%
inhibition [17]: 2%
inhibition [18]: 0%
inhibition [19]: 2%
inhibition [20]: 7%
inhibition [21]: 10%
inhibition [22]: 11%
inhibition [23]: 33%
inhibition [24]: 16%
inhibition [25]: 13%
inhibition [26]: 6%
inhibition [27]: 3%
inhibition ([28]; ATP 20 µM): 14%
inhibition ([28]; ATP 50 µM): 4%
inhibition [29]: 44%
inhibition [30]: 0%
inhibition [31]: 0%
inhibition [32]: 10%
inhibition [33]: 30%
inhibition [34]: 16%
inhibition [35]: 4%
inhibition [36]: 1%
inhibition [37]: 14%
inhibition [38]: 21%
inhibition [39]: 14%
inhibition [40]: 0%

COc1ccc(-c2cc3c(=O)[nH]cnc3s2)cc1OC
inhibition [1]: 34%
inhibition [2]: 47%
inhibition [3]: 1%
inhibition [4]: 19%
inhibition [5]: 45%
inhibition [6]: 0%
inhibition [7]: 38%
inhibition [8]: 31%
inhibition [9]: 56%
inhibition [10]: 32%
inhibition [11]: 39%
inhibition [12]: 0%
inhibition [13]: 9%
inhibition [14]: 60%
inhibition [15]: 23%
inhibition [16]: 0%
inhibition [17]: 4%
inhibition [18]: 0%
inhibition [19]: 0%
inhibition [20]: 18%
inhibition [21]: 26%
inhibition [22]: 8%
inhibition [23]: 56%
inhibition [24]: 27%
inhibition [25]: 23%
inhibition [26]: 0%
inhibition [27]: 0%
inhibition ([28]; ATP 20 µM): 41%
inhibition ([28]; ATP 50 µM): 25%
inhibition [29]: 13%
inhibition [30]: 38%
inhibition [31]: 61%
inhibition [32]: 0%
inhibition [33]: 16%
inhibition [34]: 65%
inhibition [35]: 30%
inhibition [36]: 63%
inhibition [37]: 36%
inhibition [38]: 12%
inhibition [39]: 3%
inhibition [40]: 25%

Source: the kinase profiling compilation of Christmann-Franck et al. (2016)
